Experimental data published in patent US10111437B2, “Substituted guanidines as fungicides” (Nippon Soda Co., Ltd., priority 2015, dated 2018).

Key:
[1] = system: Apple scab fungus (Venturia inaequalis); experiment: Apple scab control test (foliar spray on apple seedlings); type: in vivo; settings: 125 ppm active ingredient, sprayed on apple seedlings (variety Orin) before inoculation, vs untreated
Description: The dilution was sprayed to apple seedlings (variety “Orin”, 3 to 4 leaf stage) grown in clay pots. […] The control value was calculated by the following equation. [formula]

[2] = system: cucumber gray mold fungus (Botrytis cinerea); experiment: Cucumber gray mold control test (foliar spray on cucumber seedlings); settings: in Cucumis sativus, 96 h, read-out: control value
[3] = system: wheat leaf rust fungus (Puccinia recondita); experiment: Wheat leaf rust control test (foliar spray on wheat seedlings); type: in vivo; settings: 240 h, 125 ppm active ingredient, sprayed on wheat seedlings (variety Norin 61) before inoculation, 10 days, vs untreated
[4] = system: Tomato late blight fungus (Phytophthora infestans); experiment: whole plant or invertebrate; type: in vivo; settings: foliar, 96 h, read-out: control value

Measured: pest or weed control at 125 ppm

N=C(N)NCCCCCCCCNC(=N)NCCc1ccc(C2=NCCCN2)cc1 [compound 266]
≥ 75%: all assays above

CN1CCCN=C1c1ccc(OCCNC(=N)NCCCCCCCCNC(=N)N)cc1 [compound 300]
≥ 75%: all assays above

N=C(N)c1ccc(OCCCn2ccn(CCCc3cc4cc(C(=N)N)ccc4o3)c2=N)cc1 [compound 126]
≥ 75%: all assays above

N=C(N)NCCCCCCCCNC(=N)NCCCCOc1ccc(C2=NCCCN2)cn1 [compound 275]
≥ 75%: all assays above

N=C(N)NCCCCCCCN1CCN(CCCCCCCNC(=N)N)C1=N [compound 8, 1-[7-[3-(7-guanidinoheptyl)-2-imino-imidazolidin-1-yl]heptyl]guanidine]
≥ 75%: all assays above

N=C(N)NCCCCCCCCNC(=N)NCCOc1ccc(C2=NCCCN2)nc1 [compound 288]
≥ 75%: all assays above

CN(C)/C(=N\CCCOc1ccc(C(=N)N)cc1)NCCCOc1ccc(C(=N)N)cc1 [compound 130]
≥ 75%: all assays above

N=C(N)c1ccc(OCCCCN2CCN(CCCCOc3ccc(C(=N)N)cc3)C2=N)cc1 [compound 6, 4-[4-[3-[4-(4-carbamimidoylphenoxy)butyl]-2-imino-imidazolidin-1-yl]butoxy]benzamidine]
≥ 75%: all assays above

N=C(N)NCCCCCCCCNC(=N)N1CCC(Oc2ccc(C3=NCCCN3)cc2)CC1 [compound 264]
≥ 75%: all assays above

N=C(NCC/C=C/c1ccc(C(=N)N)cc1)NCC/C=C/c1ccc(C(=N)N)cc1 [compound 151]
≥ 75%: all assays above

N=C(N)NCCCCCCCCNC(=N)NCCCOc1ccc(C(=N)N)cc1 [compound 230]
≥ 75%: all assays above

N=C(N)NCCCCCCCCNC(=N)NC/C=C/c1ccc(C(=N)N)cc1 [compound 167]
≥ 75%: all assays above

N=C(N)NCCCCCCCNC(=N)NCCCOc1ccc(C(=N)N)cc1 [compound 29, 4-[3-[[N-(7-guanidinoheptyl)carbamimidoyl]amino]propoxy]benzamidine]
≥ 75%: all assays above

N=C(N)NCCCCCCCCNC(=N)NCCCc1ccc(C2=NCCCN2)cn1 [compound 273]
≥ 75%: all assays above

N=C(N)NCCCCCCCNC(=N)NCCC=Cc1ccc(C(=N)N)cc1 [compound 163]
≥ 75%: all assays above

N=C(NCCCC#Cc1ccc(C(=N)N)cc1)NCCCC#Cc1ccc(C(=N)N)cc1 [compound 22, 4-[5-[[N-[5-(4-carbamimidoylphenyl)pent-4-ynyl]carbamimidoyl]amino]pent-1-ynyl]benzamidine]
≥ 75%: all assays above

N=C(N)c1ccc(OCCCCn2ccn(CCCOc3ccc(C(=N)N)cc3)c2=N)cc1 [compound 40, 4-[4-[3-[3-(4-carbamimidoylphenoxy)propyl]-2-imino-imidazol-1-yl]butoxy]benzamidine]
≥ 75%: all assays above

N=C(N)NCCCCCCCCNC(=N)NCCCCOc1ccc(C2=NCCCCN2)cc1 [compound 254]
≥ 75%: all assays above

N=C(N)NCCCCCCCCNC(=N)NCCCCOc1ccc(C(=N)N)cn1 [compound 61, 6-[4-[[N-(8-guanidinooctyl)carbamimidoyl]amino]butoxy]pyridine-3-carboxamidine]
≥ 75%: all assays above

N=C(N)NCCCCCCCCn1ccn(CCOc2ccc(C3=NCC(N)CN3)cc2)c1=N (stereo not drawn) [compound 302]
≥ 75%: all assays above

N=C(N)NCCCCCCCNC(=N)NCCCSc1ccc(C(=N)N)cc1 [compound 177]
≥ 75%: all assays above

N=C(N)NCCCCCCCCNC(=N)NCCCCOc1ccc(C2=NCCN2)cc1 [compound 246]
≥ 75%: all assays above

N=C(N)NCCCCCCCn1ccn(CCCOc2ccc(C3=NCCCN3)cc2)c1=N [compound 206]
≥ 75%: all assays above

CN=C(NCCCOc1ccc(C(=N)N)cc1)NCCCOc1ccc(C(=N)N)cc1 [compound 57, 4-[3-[[N-[3-(4-carbamimidoylphenoxy)propyl]-N′-methyl-carbamimidoyl]amino]propoxy]benzamidine]
≥ 75%: all assays above

N=C(N)c1ccc(OCCCn2ccn(CCCOc3ccc(C(=N)N)cc3)c2=N)cc1 [compound 89]
≥ 75%: [1] | [3] | [4]

N=C(N)NCCCCCCCNC(=N)NCCCCOc1ccc(C(=N)N)cn1 [compound 32, 6-(4-(3-(7-guanidinoheptyl)guanidino)butoxy)nicotinimidamide]
≥ 75%: all assays above

N=C(N)NCCCCCCCNC(=N)NCCCCCOc1ccc(C(=N)N)cc1 [compound 186]
≥ 75%: all assays above

Cc1cn(CCCCOc2ccc(C(=N)N)cc2)c(=N)n1CCCCOc1ccc(C(=N)N)cc1 [compound 107]
≥ 75%: all assays above

N=C(N)NCCCCCCCCn1ccn(CCOc2ccc(C3=NCCCN3)cc2)c1=N [compound 270]
≥ 75%: [1] | [3] | [4]

N=C(N)NCCCCCCCCNC(=N)NCCOc1ccc2cc(C3=NCCCN3)ccc2c1 [compound 292]
≥ 75%: [1] | [3] | [4]

N=C(N)NCCCCCCCCNC(=N)NCCCc1ccc(C2=NCCCN2)cc1 [compound 252]
≥ 75%: [2] | [3] | [4]
